Several values for one entry are separate records, joined by “and”; a condition that tells them apart may be missing. Equal values may be shown once.
Tests used:
[1] = GFR and ERPF-Long Renal Clearance (iothalamate and PAH continuous infusion): iothalamate concentration and GFR; format: in vivo; set-up: CE GFR / MS GFR: unit not given here; details: one human subject; for CE GFR: corrected GFR per collection period from CE-UV; for CE GFR / MS GFR / Urine iothalamate concentration, CE / Urine iothalamate concentration, MS: continuous infusion; for MS GFR: corrected GFR per collection period from LC-MS/MS; for Plasma iothalamate concentration, CE / Plasma iothalamate concentration, MS: timed plasma collections P1-P6, continuous intravenous infusion; for Plasma iothalamate concentration, CE / Urine iothalamate concentration, CE: CE-UV; for Plasma iothalamate concentration, MS / Urine iothalamate concentration, MS: LC-MS/MS; for Urine iothalamate concentration, CE / Urine iothalamate concentration, MS: timed urine collections U1-U5
Experimental: For example, GFR can be calculated according to Formula I.
where UIoth is the concentration of iothalamate in urine, V is the urine flow rate (volume per unit of time), and PIoth is the plasma concentration during the urine collection period.
For the simultaneous determination of GFR and ERPF, iothalamate (Conray®, Mallinckrodt Inc. St. Louis, Mo.) and PAH (Aminohippurate Sodium, Merck & Co. Inc. Whitehouse Station, N.J.) were administered intravenously to one human subject. Iothalamate and PAH were administered using previously described constant infusion protocol. […] Blood samples were collected in tubes containing heparin or EDTA. Blood samples were centrifuged at 650 g for 7 minutes to separate plasma. Plasma was collected and stored at 4° C. to 8° C. Urine samples were collected and stored at 4° C. to 8° C. Frozen plasma and urine samples were thawed and stored at 4° C. to 8° C. until analysis.
The timed plasma collections (100 μL of each) were processed independently by diluting 1:3 with water followed by the addition of internal standard, D3-iothalamate and D4-PAH (20 μL of 38 μg/mL stock). The urine samples were diluted 1:10 with water and followed by the addition of internal standard, D3-iothalamate. All urine and plasma samples were then subjected to acetonitrile and/or 70% acetone polypeptide precipitation (100 μL) followed by centrifugation for 5 minutes at 650 g to remove/pellet protein. […]

[2] = GFR and ERPF-Long Renal Clearance (iothalamate and PAH continuous infusion): PAH concentration and ERPF; format: in vivo; set-up: CE ERPF / MS ERPF: unit not given here; details: one human subject
Experimental: ERPF can be calculated according to Formula II.
Blood samples were collected in tubes containing heparin or EDTA. Blood samples were centrifuged at 650 g for 7 minutes to separate plasma. Plasma was collected and stored at 4° C. to 8° C. Urine samples were collected and stored at 4° C. to 8° C. Frozen plasma and urine samples were thawed and stored at 4° C. to 8° C. until analysis.
The urine samples were diluted 1:10 with water and followed by the addition of internal standard, D3-iothalamate. All urine and plasma samples were then subjected to acetonitrile and/or 70% acetone polypeptide precipitation (100 μL) followed by centrifugation for 5 minutes at 650 g to remove/pellet protein. […]

CNC(=O)c1c(I)c(NC(C)=O)c(I)c(C(=O)O)c1I [Iothalamate, iothalamate]
CE GFR ([1]; collection period P1): 138
CE GFR ([1]; collection period P2): 127
CE GFR ([1]; collection period P3): 123
CE GFR ([1]; collection period P4): 114
CE GFR ([1]; collection period P5): 119
MS GFR ([1]; collection period P1): 141
MS GFR ([1]; collection period P2): 114
MS GFR ([1]; collection period P3): 120
MS GFR ([1]; collection period P4): 116
MS GFR ([1]; collection period P5): 119
Plasma iothalamate concentration, CE ([1]; plasma collection P1): 11.645 µg/mL
Plasma iothalamate concentration, CE ([1]; plasma collection P2): 9.479 µg/mL
Plasma iothalamate concentration, CE ([1]; plasma collection P3): 8.341 µg/mL
Plasma iothalamate concentration, CE ([1]; plasma collection P4): 7.334 µg/mL
Plasma iothalamate concentration, CE ([1]; plasma collection P5): 6.869 µg/mL
Plasma iothalamate concentration, CE ([1]; plasma collection P6): 6.912 µg/mL
Plasma iothalamate concentration, MS ([1]; plasma collection P1): 10.6 µg/mL
Plasma iothalamate concentration, MS ([1]; plasma collection P2): 9.09 µg/mL
Plasma iothalamate concentration, MS ([1]; plasma collection P3): 7.93 µg/mL
Plasma iothalamate concentration, MS ([1]; plasma collection P4): 8.21 µg/mL
Plasma iothalamate concentration, MS ([1]; plasma collection P5): 7.12 µg/mL
Plasma iothalamate concentration, MS ([1]; plasma collection P6): 6.43 µg/mL
Urine iothalamate concentration, CE ([1]; urine collection U1): 12.973 µg/mL
Urine iothalamate concentration, CE ([1]; urine collection U2): 9.189 µg/mL
Urine iothalamate concentration, CE ([1]; urine collection U3): 8.069 µg/mL
Urine iothalamate concentration, CE ([1]; urine collection U4): 7.716 µg/mL
Urine iothalamate concentration, CE ([1]; urine collection U5): 7.333 µg/mL
Urine iothalamate concentration, MS ([1]; urine collection U1): 12.4 µg/mL
Urine iothalamate concentration, MS ([1]; urine collection U2): 7.85 µg/mL
Urine iothalamate concentration, MS ([1]; urine collection U3): 8.09 µg/mL
Urine iothalamate concentration, MS ([1]; urine collection U4): 8.5 µg/mL
Urine iothalamate concentration, MS ([1]; urine collection U5): 7.21 µg/mL

Nc1ccc(C(=O)NCC(=O)O)cc1 [PAH, p-aminohippuric acid]
MS ERPF ([2]; ERPF per collection period from LC-MS/MS, continuous infusion): 586 and 514 and 532 and 602 and 566
CE ERPF ([2]; ERPF per collection period, CE, continuous infusion): 574 and 534 and 523 and 615 and 543
Plasma PAH concentration, CE ([2]; timed plasma collections P1-P6, CE, continuous intravenous infusion): 17.755 µg/mL and 17.120 µg/mL and 17.740 µg/mL and 18.320 µg/mL and 18.000 µg/mL and 17.635 µg/mL
Plasma PAH concentration, MS ([2]; timed plasma collections P1-P6, LC-MS/MS, continuous intravenous infusion): 18.3 µg/mL and 18 µg/mL and 18.7 µg/mL and 18.9 µg/mL and 19.4 µg/mL and 17.9 µg/mL
Urine PAH concentration, CE ([2]; timed urine collections U1-U5, CE, continuous infusion): 97.620 µg/mL

From patent US20120001065A1, “EVALUATING RENAL FUNCTION” (Mayo Foundation for Medical Education and Rsearch, priority 2009, published 2012)
